Measured values as given in PubChem BioAssay (NCI).
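1) Cells in 96-well plates. 2) Compound, 48 h, 5 concentrations. 3) Linear interpolation between surrounding doses. 4) Unreached endpoint = highest concentration. The concentration for 50% growth inhibition is given as GI50. TGI: total growth inhibition.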

How the values were obtained:
Experiment in all cases: NCI-60 cell line screen, 48 h
[1] = system: 786-0 renal
[2] = system: A498 renal
[3] = system: A549 NSCLC
[4] = system: ACHN renal
[5] = system: BT-549 breast
[6] = system: CAKI-1 renal
[7] = system: CCRF-CEM leukemia
[8] = system: COLO 205 colon
[9] = system: DU-145 prostate
[10] = system: HCC-2998 colon
[11] = system: HCT-116 colon
[12] = system: HCT-15 colon
[13] = system: HL-60(TB) leukemia
[14] = system: HOP-62 NSCLC
[15] = system: HS 578T breast
[16] = system: HT29 colon
[17] = system: IGROV1 ovarian
[18] = system: K-562 leukemia
[19] = system: KM12 colon
[20] = system: M14 melanoma
[21] = system: MALME-3M melanoma
[22] = system: MCF7 breast
[23] = system: MDA-MB-231 breast
[24] = system: MDA-MB-435
[25] = system: MOLT-4 leukemia
[26] = system: NCI-H226 lung
[27] = system: NCI-H23 lung
[28] = system: NCI-H460 lung
[29] = system: NCI-H522 lung
[30] = system: NCI/ADR-RES ovarian
[31] = system: OVCAR-3 ovarian
[32] = system: OVCAR-4 ovarian
[33] = system: OVCAR-5 ovarian
[34] = system: OVCAR-8 ovarian
[35] = system: PC-3 prostate
[36] = system: RPMI-8226 leukemia
[37] = system: RXF 393 renal
[38] = system: SF-268 CNS
[39] = system: SF-295 CNS
[40] = system: SF-539 CNS
[41] = system: SK-MEL-28 melanoma
[42] = system: SK-MEL-5 melanoma
[43] = system: SK-OV-3 ovarian
[44] = system: SN12C renal
[45] = system: SNB-19 CNS
[46] = system: SNB-75 CNS
[47] = system: SR leukemia
[48] = system: SW-620 colon
[49] = system: T-47D breast
[50] = system: TK-10 renal
[51] = system: U251 CNS
[52] = system: UACC-257 melanoma
[53] = system: UACC-62 melanoma
[54] = system: UO-31 renal

Question: What does the source list for COc1cc(-c2cc(-c3nc4ccc(F)cc4[nH]3)[nH]n2)cc(OC)c1OC?
Answer: GI50 [1]: 3.97 µM; TGI [1]: 14.6 µM; GI50 [2]: 1860 nM; TGI [2]: 11.9 µM; GI50 [3]: 2460 nM; TGI [3]: 8.81 µM; GI50 [4]: 2540 nM; TGI [4]: 11.6 µM; GI50 [5]: 1840 nM; TGI [5]: 6.28 µM; GI50 [6]: 1800 nM; TGI [6]: 6.84 µM; GI50 [7]: 1980 nM; TGI [7]: 5.74 µM; GI50 [8]: 3.26 µM; TGI [8]: 10.3 µM; GI50 [9]: 3.17 µM; TGI [9]: 13 µM; GI50 [10]: 5.96 µM; TGI [10]: 18.7 µM; GI50 [11]: 2810 nM; TGI [11]: 10.4 µM; GI50 [12]: 2790 nM; TGI [12]: 10.8 µM; GI50 [13]: 2520 nM; TGI [13]: 7.71 µM; GI50 [14]: 2370 nM; TGI [14]: 8.05 µM; GI50 [15]: 3.32 µM; TGI [15]: > 100 µM; GI50 [16]: 4.4 µM; TGI [16]: 28.3 µM; GI50 [17]: 2270 nM; TGI [17]: 10.7 µM; GI50 [18]: 2870 nM; TGI [18]: 32.7 µM; GI50 [19]: 2290 nM; TGI [19]: 6.23 µM; GI50 [20]: 2360 nM; TGI [20]: 7.62 µM; GI50 [21]: 1960 nM; TGI [21]: 8.44 µM; GI50 [22]: 2110 nM; TGI [22]: 6.37 µM; GI50 [23]: 3.05 µM; TGI [23]: 15.2 µM; GI50 [24]: 2120 nM; TGI [24]: 5.44 µM; GI50 [25]: 2100 nM; TGI [25]: 4.82 µM; GI50 [26]: 1280 nM; TGI [26]: 4.31 µM; GI50 [27]: 2350 nM; TGI [27]: 6.89 µM; GI50 [28]: 2900 nM; TGI [28]: 11.8 µM; GI50 [29]: 1730 nM; TGI [29]: 5.15 µM; GI50 [30]: 3.19 µM; TGI [30]: 9.2 µM; GI50 [31]: 2950 nM; TGI [31]: 10 µM; GI50 [32]: 1290 nM; TGI [32]: 4.27 µM; GI50 [33]: 11.1 µM; TGI [33]: 24 µM; GI50 [34]: 1990 nM; TGI [34]: 5.03 µM; GI50 [35]: 1630 nM; TGI [35]: 5.84 µM; GI50 [36]: 1240 nM; TGI [36]: 3.26 µM; GI50 [37]: 1850 nM; TGI [37]: 9.36 µM; GI50 [38]: 3.23 µM; TGI [38]: 11.2 µM; GI50 [39]: 2510 nM; TGI [39]: 9.67 µM; GI50 [40]: 3.58 µM; TGI [40]: 14.4 µM; GI50 [41]: 2390 nM; TGI [41]: 6.52 µM; GI50 [42]: 1390 nM; TGI [42]: 2800 nM; GI50 [43]: 3.32 µM; TGI [43]: 9.59 µM; GI50 [44]: 2920 nM; TGI [44]: 12.9 µM; GI50 [45]: 5.47 µM; TGI [45]: 18.8 µM; GI50 [46]: 1760 nM; TGI [46]: 5.54 µM; GI50 [47]: 3.45 µM; TGI [47]: 32 µM; GI50 [48]: 4.11 µM; TGI [48]: 20.5 µM; GI50 [49]: 764 nM; TGI [49]: 3.09 µM; GI50 [50]: 4.39 µM; TGI [50]: 16 µM; GI50 [51]: 2610 nM; TGI [51]: 12 µM; GI50 [52]: 2150 nM; TGI [52]: 5.9 µM; GI50 [53]: 1800 nM; TGI [53]: 4.82 µM; GI50 [54]: 1740 nM; TGI [54]: 6.97 µM
